Consider 20 compounds from patent US20240425479A1, “HALO-SUBSTITUTED AMINO AZA-HETEROARYL COMPOUNDS AS INHIBITORS OF THE HAEMATOPOIETIC PROGENITOR KINASE 1 (HPK1)” (priority 2021, published 2024).

In assay [1] the target is T1, Recombinant (1-346) HPK1 (h) (Homo sapiens, UniProt Q92918).
T1 construct: Recombinant (1-346) HPK1 (h) is incubated with 8 mM MOPS pH 7.0
T1 sequence (Q92918 1-346): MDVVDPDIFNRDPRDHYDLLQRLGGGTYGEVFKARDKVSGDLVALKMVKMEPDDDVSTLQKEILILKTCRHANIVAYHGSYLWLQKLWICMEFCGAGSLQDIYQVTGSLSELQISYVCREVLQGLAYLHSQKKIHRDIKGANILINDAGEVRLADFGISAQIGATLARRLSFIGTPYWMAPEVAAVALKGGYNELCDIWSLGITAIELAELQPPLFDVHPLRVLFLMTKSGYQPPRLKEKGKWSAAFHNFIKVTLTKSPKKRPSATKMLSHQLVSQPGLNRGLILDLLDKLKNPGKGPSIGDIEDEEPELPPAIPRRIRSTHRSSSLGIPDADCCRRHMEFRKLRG
As to the kind of experiment: HPK1 human STE kinase enzymatic radiometric assay. The class given is biochemical. The conditions noted are these: read-out: HPK1 IC50 nM Range. The method in brief:
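Recombinant HPK1 (1-346) incubated 40 min at RT with 0.33 mg/mL myelin basic protein and [gamma-33P]-ATP in 8 mM MOPS pH 7.0, 0.2 mM EDTA, 10 mM Mg acetate; reaction started with Mg/ATP. Stopped with 0.5% phosphoric acid, spotted on P30 filtermat, washed, scintillation counted. Compounds tested as 9-point 3-fold dilutions.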

For assay [2], the target named is Lck (h) (Homo sapiens, UniProt P06239). The experiment in a line: Lck human STE kinase enzymatic radiometric assay. The class given is biochemical. The note with it: for IC50: read-out: Lck IC50 nM Range. How it is done: (b) Lck Human STE Kinase Enzymatic Radiometric Assay
Lck (h) is incubated with 50 mM Tris pH 7.5, 0.1 mM EGTA, 0.1 mM Na3VO4, 250 uM KVEKIGEGTYGVVYK (Cdc2 peptide), 10 mM MgAcetate and [gamma-33P]-ATP (specific activity and concentration as required). The reaction is initiated by the addition of the Mg/ATP mix. After incubation for 40 minutes at room temperature, the reaction is stopped by the addition of phosphoric acid to a concentration of 0.5%, 10 μL of the reaction is then spotted onto a P30 filtermat and washed four times for 4 minutes in 0.425% phosphoric acid and once in methanol prior to drying and scintillation counting. For more details on the kinase assay procedures see: Gao, Y. et. al.; Biochem J., 451 (2): 313-328, 2013.

By IC50 is commonly meant the midpoint of a concentration-inhibition curve.

The structures appear in SMILES notation. Where only a bound is given, the exact number is not on record here.

Lck (h), sequence (P06239 whole entry): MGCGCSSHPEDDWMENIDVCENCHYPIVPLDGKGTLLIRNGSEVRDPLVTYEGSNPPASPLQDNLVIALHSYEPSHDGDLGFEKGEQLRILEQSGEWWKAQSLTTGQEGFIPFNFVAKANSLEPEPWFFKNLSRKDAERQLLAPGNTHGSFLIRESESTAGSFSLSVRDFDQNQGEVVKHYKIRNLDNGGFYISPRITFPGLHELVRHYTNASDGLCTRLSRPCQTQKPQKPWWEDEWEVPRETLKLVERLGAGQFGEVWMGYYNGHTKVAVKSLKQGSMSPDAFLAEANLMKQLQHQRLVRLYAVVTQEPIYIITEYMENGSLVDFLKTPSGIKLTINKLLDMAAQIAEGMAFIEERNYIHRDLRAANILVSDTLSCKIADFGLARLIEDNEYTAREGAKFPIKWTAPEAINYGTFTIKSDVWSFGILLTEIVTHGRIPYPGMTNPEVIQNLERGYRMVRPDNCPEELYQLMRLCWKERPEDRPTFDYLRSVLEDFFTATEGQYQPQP

As for `CN(C)Cc1cc(-c2nc(-c3ccc4c(c3)CCNC4=O)c(N)nc2F)ccc1N1CCOCC1` [Example I-64, 6-(3-amino-6-(3-((dimethylamino)methyl)-4-morpholinophenyl)-5-fluoropyrazin-2-yl)-3,4-dihydroisoquinolin-1(2H)-one], the IC50 in assay [1] was 0.1 to 10 nM; in assay [2], above 1000 nM.
For `Nc1nc(F)c(-c2ccc(C3CCOCC3)c(CN3CCC3)c2)nc1-c1cc(F)c2c(c1)CCNC2=O` [Example I-171, 6-(3-amino-6-(3-(azetidin-1-ylmethyl)-4-(tetrahydro-2H-pyran-4-yl)phenyl)-5-fluoropyrazin-2-yl)-8-fluoro-3,4-dihydroisoquinolin-1(2H)-one], the IC50 was 0.1 to 10 nM in assay [1] and 101 to 1000 nM in assay [2].
Take `C[C@@H]1CN(c2ccc(-c3nc(-c4cc5c(cc4F)C(=O)NCC5)c(N)nc3F)cc2CN(C)C)CCO1` [Example I-173, (R)-6-(3-amino-6-(3-((dimethylamino)methyl)-4-(2-methylmorpholino)phenyl)-5-fluoropyrazin-2-yl)-7-fluoro-3,4-dihydroisoquinolin-1(2H)-one]: the half-maximal inhibitory concentration (IC50) fell in the range of 0.1 to 10 nM in assay [1] and 101 to 1000 nM in assay [2].
Regarding `Cc1nc2cc(-c3nc(-c4ccc(C5CCOCC5)c(CN(C)C)c4)c(F)nc3N)cc(F)c2c(=O)[nH]1` [Example I-91, 7-(3-amino-6-(3-((dimethylamino)methyl)-4-(tetrahydro-2H-pyran-4-yl)phenyl)-5-fluoropyrazin-2-yl)-5-fluoro-2-methylquinazolin-4(3H)-one], the values for the IC50 in assay [1] and in assay [2] were 0.1 to 10 nM and above 1000 nM, respectively.
As for `Nc1nc(F)c(-c2ccc(N3CCN(CCC4CC4)CC3)cc2)nc1-c1cc(F)c2c(c1)CCNC2=O` [Example I-26, 6-(3-amino-6-(4-(4-(2-cyclopropylethyl)piperazin-1-yl)phenyl)-5-fluoropyrazin-2-yl)-8-fluoro-3,4-dihydroisoquinolin-1(2H)-one], the figures for the half-maximal inhibitory concentration (IC50) in assay [1] and in assay [2] were 0.1 to 10 nM and above 1000 nM, respectively.
`CN(C)Cc1cc(-c2nc(-c3ccc4c(c3)CCNC4=O)c(N)nc2F)ccc1C1CCOCC1` [Example I-59, 6-(3-amino-6-(3-((dimethylamino)methyl)-4-(tetrahydro-2H-pyran-4-yl)phenyl)-5-fluoropyrazin-2-yl)-3,4-dihydroisoquinolin-1(2H)-one]: the IC50 was 0.1 to 10 nM in assay [1] and above 1000 nM in assay [2].
The matching figures for `CCN(C)Cc1cc(-c2nc(-c3cc(F)c4c(c3)CCNC4=O)c(N)nc2F)ccc1C1CCOCC1` [Example I-165, 6-(3-amino-6-(3-((ethyl(methyl)amino)methyl)-4-(tetrahydro-2H-pyran-4-yl)phenyl)-5-fluoropyrazin-2-yl)-8-fluoro-3,4-dihydroisoquinolin-1(2H)-one]: 0.1 to 10 nM and above 1000 nM.
For `Nc1nc(F)c(-c2ccc(N3CCN(CC4CC4)CC3)cc2)nc1-c1ccc2c(=O)[nH]ccc2c1` [Example I-23, 6-(3-amino-6-(4-(4-(cyclopropylmethyl)piperazin-1-yl)phenyl)-5-fluoropyrazin-2-yl)isoquinolin-1(2H)-one], the half-inhibitory concentration (IC50) in assay [1] is 0.1 to 10 nM; in assay [2] it was above 1000 nM.
As for `CC(C)N1C[C@H]2C[C@@]2(c2ccc(-c3nc(-c4cc5c(cc4F)C(=O)NCC5)c(N)nc3F)cc2)C1` [Example I-4, 6-(3-amino-5-fluoro-6-(4-((1R,5S)-3-isopropyl-3-azabicyclo[3.1.0]hexan-1-yl)phenyl)pyrazin-2-yl)-7-fluoro-3,4-dihydroisoquinolin-1(2H)-one], the results for the concentration for half-maximal inhibition (IC50) in assay [1] and in assay [2] were 0.1 to 10 nM and above 1000 nM, respectively.
With `CN(C)Cc1cc(-c2nc(-c3ccc4c(c3)C(F)(F)CNC4=O)c(N)nc2F)ccc1C1CCOCC1` [Example I-223, 6-(3-amino-6-(3-((dimethylamino)methyl)-4-(tetrahydro-2H-pyran-4-yl)phenyl)-5-fluoropyrazin-2-yl)-4,4-difluoro-3,4-dihydroisoquinolin-1(2H)-one], the IC50 in assay [1] is 0.1 to 10 nM; in assay [2], above 1000 nM.
Consider `C[C@H]1CN(c2ccc(-c3nc(-c4cc(F)c5c(c4)CCNC5=O)c(N)nc3F)cc2CN(C)C)CCO1` [Example I-213, (S)-6-(3-amino-6-(3-((dimethylamino)methyl)-4-(2-methylmorpholino)phenyl)-5-fluoropyrazin-2-yl)-8-fluoro-3,4-dihydroisoquinolin-1(2H)-one], for which the IC50 in assay [1] was 0.1 to 10 nM.
In the case of `Nc1nc(F)c(-c2ccc(C3CCOCC3)c([C@@H]3CCCN3)c2)nc1-c1cc2c(cc1F)C(=O)NCC2` [Example I-19, (S)-6-(3-amino-5-fluoro-6-(3-(pyrrolidin-2-yl)-4-(tetrahydro-2H-pyran-4-yl)phenyl)pyrazin-2-yl)-7-fluoro-3,4-dihydroisoquinolin-1(2H)-one], in assay [1], the IC50 fell in the range of 0.1 to 10 nM.
With `CCN(C)Cc1cc(-c2nc(-c3ccc4c(c3)CCNC4=O)c(N)nc2F)ccc1C1CCOCC1` [Example I-163, 6-(3-amino-6-(3-((ethyl(methyl)amino)methyl)-4-(tetrahydro-2H-pyran-4-yl)phenyl)-5-fluoropyrazin-2-yl)-3,4-dihydroisoquinolin-1(2H)-one], the IC50 in assay [1] lay within 0.1 to 10 nM.
Consider `CC(C)N1CCN(c2ccc(-c3nc(-c4cc5c(cc4F)C(=O)NCC5)c(N)nc3F)cc2)[C@H](C)C1` [Example I-51, (R)-6-(3-amino-5-fluoro-6-(4-(4-isopropyl-2-methylpiperazin-1-yl)phenyl)pyrazin-2-yl)-7-fluoro-3,4-dihydroisoquinolin-1(2H)-one], for which the IC50 in assay [1] was in the range of 0.1 to 10 nM.
On the same count and under the same terms, as for `Cc1[nH]c(=O)c2c(F)cc(-c3nc(-c4ccc(C5CCOCC5)c(CN(C)C)c4)c(F)nc3N)cc2c1Cl` [Example I-104, 6-(3-amino-6-(3-((dimethylamino)methyl)-4-(tetrahydro-2H-pyran-4-yl)phenyl)-5-fluoropyrazin-2-yl)-4-chloro-8-fluoro-3-methylisoquinolin-1(2H)-one], the figure is 0.1 to 10 nM.
Same read-out and setting: under `Nc1nc(F)c(-c2ccc(N3CCN(C4COC4)CC3)cc2)nc1-c1ccc2c(c1)CCNC2=O` [Example I-46, 6-(3-amino-5-fluoro-6-(4-(4-(oxetan-3-yl)piperazin-1-yl)phenyl)pyrazin-2-yl)-3,4-dihydroisoquinolin-1(2H)-one] stands 0.1 to 10 nM.
For `Cc1c[nH]c(=O)c2ccc(-c3nc(-c4ccc(C5CCOCC5)cc4)c(F)nc3N)cc12` [Example I-181, 6-(3-amino-5-fluoro-6-(4-(tetrahydro-2H-pyran-4-yl)phenyl)pyrazin-2-yl)-4-methylisoquinolin-1(2H)-one], the 50% inhibitory concentration (IC50) in assay [1] lay within 0.1 to 10 nM.
As to `Nc1nc(F)c(-c2ccc(N3CCOCC3)cc2)nc1-c1ccc2c(c1)CCNC2=O` [drawing 1319], the “LcK IC50/HPK IC50 selectivity” value in assay [2] (ratio Lck IC50 / HPK1 IC50) is listed as above 1666.
With `Cc1[nH]c(=O)c2c(F)cc(-c3nc(-c4ccc(N5CCN(C(C)C)CC5)cc4)c(F)nc3N)cc2c1F` [Example I-111, 6-(3-amino-5-fluoro-6-(4-(4-isopropylpiperazin-1-yl)phenyl)pyrazin-2-yl)-4,8-difluoro-3-methylisoquinolin-1(2H)-one], in assay [1], the 50% inhibitory concentration (IC50) fell in the range of 0.1 to 10 nM.
With `CN(C)Cc1cc(-c2nc(-c3ccc4c(=O)[nH]cc(Cl)c4c3)c(N)nc2F)ccc1N1CCOCC1` [Example I-153, 6-(3-amino-6-(3-((dimethylamino)methyl)-4-morpholinophenyl)-5-fluoropyrazin-2-yl)-4-chloroisoquinolin-1(2H)-one], the IC50 in assay [1] lay within 0.1 to 10 nM.
